# Assay results reported in patent publication US11225469B2, “Inhibitors of phosphoglycerate dehydrogenase (PHGDH) and uses thereof” (Whitehead Institute for Biomedical Research, priority 2015, dated 2022).
# pIC50: −log10 of the molar value.
# Target: PHGDH (Homo sapiens (Human), UniProt O43175)
# Assay: PHGDH inhibition, coupled assay with PSAT1/PSPH and diaphorase/resazurin readout
# Type: biochemical
# Conditions: Table E9; mixture with PSAT1, PSPH; diaphorase/resazurin reporter
# PHGDH, sequence (O43175 whole entry): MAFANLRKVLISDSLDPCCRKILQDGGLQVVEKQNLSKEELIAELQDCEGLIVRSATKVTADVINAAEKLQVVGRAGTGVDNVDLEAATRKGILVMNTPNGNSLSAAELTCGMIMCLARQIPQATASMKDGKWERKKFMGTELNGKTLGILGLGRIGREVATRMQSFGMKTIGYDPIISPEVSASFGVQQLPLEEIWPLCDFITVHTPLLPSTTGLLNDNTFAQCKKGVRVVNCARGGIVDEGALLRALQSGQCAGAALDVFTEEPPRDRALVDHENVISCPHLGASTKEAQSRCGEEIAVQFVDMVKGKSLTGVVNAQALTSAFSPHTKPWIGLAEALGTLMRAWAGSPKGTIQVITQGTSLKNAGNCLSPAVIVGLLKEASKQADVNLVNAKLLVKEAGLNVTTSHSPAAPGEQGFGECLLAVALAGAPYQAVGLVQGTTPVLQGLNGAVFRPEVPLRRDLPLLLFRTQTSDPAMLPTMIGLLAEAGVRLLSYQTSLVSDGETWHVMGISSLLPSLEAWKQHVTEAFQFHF
row,SMILES,pIC50
1,Cc1nc(CN(C)c2ncnc3ccc(-c4ccc5[nH]ncc5c4)cc23)cs1 [Compound 222],≤ 4.70
2,Cc1ccnc(NC(=S)NC2CCN(c3cccc(C(F)(F)F)c3)CC2)c1 [Compound 50],4.70 to 5.00
3,Cc1cc(C)nc(NC(=S)N2CCN(c3cc(Cl)c(Cl)cc3Cl)CC2)c1 [Compound 220],≤ 4.70
4,Cc1cc(C)nc(NC(=S)N2CCN(c3nccc4ccccc34)CC2)c1 [Compound 132],4.70 to 5.00
5,CC(Cc1ccccc1)C(=O)Nc1ccc(Cl)cc1C(=O)O (stereo not drawn) [Compound 20],≤ 4.70
6,Cc1cc(C)nc(NC(=S)N2CC3CN(c4ccc(Cl)cc4C(F)(F)F)CC3C2)c1 (stereo not drawn) [Compound 223],4.70 to 5.00
7,Cc1cc(C)nc(NC(=S)N2CCN(c3cnc4nccn4c3)CC2)c1 [Compound 160],≤ 4.70
8,Cc1cc(C)nc(NC(=S)N2CCN(c3ccc4cn(C)nc4c3)CC2)c1 [Compound 129],≤ 4.70
9,"Cc1cc(C)nc(NC(=S)N2CCCC(NC(=O)c3ccc(C(F)(F)F)cc3)C2)c1 (stereo not drawn) [Compound 264, N-(1-((4,6-dimethylpyridin-2-yl)carbamothioyl)piperidin-3-yl)-4-(trifluoromethyl)benzamide]",> 5.30
10,Cc1cc(C)nc(NC(=S)N2CCN(C3CCCCC3)CC2)c1 [Compound 253],4.70 to 5.00
11,Cc1cc(C)nc(NC(=S)N2CCN(c3nccs3)CC2)c1 [Compound 87],≤ 4.70
12,Cc1cc(C)nc(NC(=S)N2CCN(c3ncc(Cl)cc3Cl)CC2)c1 [Compound 81],5.00 to 5.30
13,CSC(Cc1ccc(Cl)cc1)C(=O)Nc1ccc(Cl)cc1C(=O)O (stereo not drawn) [Compound 19],≤ 4.70
14,Cc1cc(C)nc(NC(=S)N2CCN(c3ccc(N4CCCC4)nn3)CC2)c1 [Compound 84],≤ 4.70
15,Cc1ccnc(NC(=S)N2CC3CN(c4cccc(C(F)(F)F)c4)CC3C2)c1 (stereo not drawn) [Compound 45],4.70 to 5.00
16,Cc1cc(C)nc(NC(=S)N2CCN(c3nccc4occc34)CC2)c1 [Compound 103],4.70 to 5.00

# Other lines, results leading:
row,pIC50,SMILES
1,≤ 4.70,Cc1ccc(N2CCN(C(=S)Nc3cc(C)ccn3)CC2)cc1 [Compound 11]
2,≤ 4.70,Cc1cc(C)nc(N/C(=N/C#N)N2CCN(c3cccc(C(F)(F)F)c3)CC2)c1 [Compound 95]
3,4.70 to 5.00,COc1cccc(NC(=S)N2CCN(c3ccc(C(F)(F)F)cc3[N+](=O)[O-])CC2)n1 [Compound 192]
4,4.70 to 5.00,FC(F)(F)c1cnc(N2CCN(C(=S)Nc3cc(Cl)ccn3)CC2)c(Cl)c1 [Compound 202]
5,5.00 to 5.30,Cc1cc(C)nc(NC(=S)N2CCN(c3cc(C(F)(F)F)nc4ccc(C(F)(F)F)cc34)CC2)c1 [Compound 158]
6,5.00 to 5.30,Cc1cc(C)nc(NC(=S)N2CCN(c3ncc(C(F)(F)F)cc3Cl)CC2)c1 [Compound 111]
7,4.70 to 5.00,COc1cc(N2CCN(C(=S)Nc3cc(C)cc(C)n3)CC2)cc(C(F)(F)F)c1 [Compound 136]
8,> 5.30,FC(F)(F)c1cccc(N2CCN(C(=S)Nc3nc(-c4ccccc4)c[nH]3)CC2)c1 [Compound 230]
9,≤ 4.70,Cc1cc(C)nc(NC(=S)N2CCN(c3ccc(C(=O)O)cc3)CC2)c1 [Compound 101]
10,4.70 to 5.00,Cc1cc(C)nc(NC(=S)N2CCN(c3cccc(C#N)c3)CC2)c1 [Compound 66]
11,≤ 4.70,Cc1cc(C)nc(NC(=S)N2CCN(c3ccc([S+](C)(=O)[O-])cc3F)CC2)c1 [Compound 109]
12,4.70 to 5.00,COc1cccc(NC(=S)N2CCN(c3cccc(Cl)c3Cl)CC2)n1 [Compound 189]
13,> 5.30,COc1cccc(NC(=S)N2CCN(c3cc(C(F)(F)F)cc(C(F)(F)F)c3)CC2)n1 [Compound 188]
14,4.70 to 5.00,FC(F)(F)c1cccc(N2CCN(C(=S)Nc3ccc4ccccc4n3)CC2)c1 [Compound 34]
15,> 5.30,COc1cccc(NC(=S)N2CCN(c3ncc(C(F)(F)F)cc3Cl)CC2)n1 [Compound 195]
16,4.70 to 5.00,Cc1cc(C)nc(NC(=S)N2CCN(c3cncc4ccccc34)CC2)c1 [Compound 146]
17,≤ 4.70,Cc1cc(C)nc(NC(=S)N2CCN(c3cccc4nccn34)CC2)c1 [Compound 150]
